The values below come from patent US7612079B2, “2,6,9-substituted purine derivatives and their use in the treatment of proliferative disorders” (Cyclacel Limited, priority 2001, dated 2009).

By melting point is commonly meant the temperature, or range, at which the solid turns liquid.

In data set [1] the target is T1, cyclic AMP-dependent kinase (PKA) catalytic subunit (Homo sapiens, UniProt P17612).
T1 construct: purchased Calbiochem 539487
Kind of data set: PKA kinase assay (Kemptide phosphorylation). Format: biochemical. As to conditions: Table 2; read-out: Kinase inhibition PKA IC50. As to the method: The reaction mixture (total volume 50 μl) consisted of 20 mM MOPS, pH 7.2, 25 mM β-glycerophosphate, 5 mM EGTA, 1 mM DTT, 1 mM Na3VO4, 10 mM MgCl2, 100 μM ATP, 0.2 μCi [γ-^32P]-ATP.

A further data set concerns A2780. Description: 72-h MTT proliferation assay, A2780. Type of data set: cell-based. The settings on record: Homo sapiens, read-out: IC50 Cell line A2780. The source says: (§1) Selected compounds from the above examples were subjected to a standard cellular proliferation assay using seven different human tumour cell lines: A2780, A278CisF, CH1, CH1DoxR, HCT116, HT29 and KM12. […] Human tumour cell lines were obtained from the ATCC (American Type Culture Collection, 10801 University Boulevard, Manessas, Va. 20110-2209, USA). The results are shown in Table 1, together with the average IC50 over the seven different cell lines.
In general terms: Formazan colour is commonly taken as a measure of viable cells.

Another data set has as its target CDK4/cyclin D1 (Homo sapiens, UniProt P11802). Description: CDK4/cyclin D1 kinase assay (GST-Rb phosphorylation). Format: biochemical. As to conditions: Table 2; read-out: Kinase inhibition CDK4/cyclin D1 IC50. Here is the method:
Assays for CDK2/cyclin E kinase, CDK1/cyclin B and CDK4/cyclin D1 may be carried out by monitoring phosphorylation of GST-Rb in an appropriate system. […] The phosphorylation reaction mixture (total volume 40 μl) consisted of 50 mM HEPES pH 7.4, 20 mM MgCl2, 5 mM EGTA, 2 mM DTT, 20 mM β-glycerophosphate, 2 mM NaF, 1 mM Na3VO4, Protease Inhibitors Cocktail (Sigma, see above), BSA 0.5 mg/ml, 1 μg purified enzyme complex, 10 μl of GST-Rb-Sepharose-beads, 100 μM ATP, 0.2 μCi ^32P-ATP. The reaction is carried out for 30 min at 30° C. at constant shaking. At the end of this period 100 μl of 50 mM HEPES, pH 7.4 and 1 mM ATP is added to each well and the total volume transferred onto GFC filtered plate. The plate is washed 5 times with 200 μl of 50 mM HEPES, pH 7.4 and 1 mM ATP. To each well was added 50 μl scintillant liquid and the radioactivity of the samples is measured on Scintilation counter (Topcount, HP). The IC50 values of different peptides were calculated using GraFit software.

The test system of another data set is A2780 CisR. Kind of data set: 72-h MTT proliferation assay, A2780 CisR. Type of data set: cell-based. The settings on record: Homo sapiens, A2780cisR, read-out: IC50 Cell line A2780 CisR.
Source text: as §1

The subject of the next data set is CH1DoxR. Kind of data set: 72-h MTT proliferation assay, CH1DoxR. Format: cell-based. As to conditions: Homo sapiens, read-out: IC50 Cell line CH1DoxR.
Source text: as §1

A further data set relates to A549, HT29, Saos-2. Description: In vitro anti-proliferative activity, 72-h MTT, A549, HT29, Saos-2. Format: cell-based. As to conditions: read-out: In vitro anti-proliferative activity (72-h MTT IC50), Cell lines: A549, HT29, Saos-2.
The next data set deals with HCT116. Kind of data set: 72-h MTT proliferation assay, HCT116. Type of data set: cell-based. As to conditions: Homo sapiens, HCT-116, read-out: IC50 Cell line HCT116.
Source text: as §1

Another data set is described as follows: Aqueous solubility. Format: physicochemical. The settings on record: remark in Table 1; versus Roscovitine. The source says:
[…]. […] […]

The next data set relates to KM12. Description: 72-h MTT proliferation assay, KM12. Format: cell-based. The settings on record: Homo sapiens, read-out: IC50 Cell line KM12.
Source text: as §1

In another data set the test system is HT29. Kind of data set: 72-h MTT proliferation assay, HT29. Format: cell-based. The settings on record: Homo sapiens, HT-29, read-out: IC50 Cell line HT29.
Source text: as §1

Data set [2] has as its system seven different human tumour cell lines: A2780, A278CisF, CH1, CH1DoxR, HCT116, HT29 and KM12. Kind of data set: 72-h MTT proliferation assay, average over seven cell lines. Type of data set: cell-based. As to conditions: read-out: IC50 Cell line Average. The source says: Selected compounds from the above examples were subjected to a standard cellular proliferation assay using seven different human tumour cell lines: A2780, A278CisF, CH1, CH1DoxR, HCT116, HT29 and KM12.

In another data set the target is CDK7/cyclin H (Homo sapiens, UniProt P50613). Kind of data set: CDK7/cyclin H kinase inhibition. Format: biochemical. As to conditions: Table 2.
The test system of another data set is CH1. Kind of data set: 72-h MTT proliferation assay, CH1. Type of data set: cell-based. The settings on record: Homo sapiens, read-out: IC50 Cell line CH1.
Source text: as §1

Chain of CDK7/cyclin H (P50613 whole entry, species assumed): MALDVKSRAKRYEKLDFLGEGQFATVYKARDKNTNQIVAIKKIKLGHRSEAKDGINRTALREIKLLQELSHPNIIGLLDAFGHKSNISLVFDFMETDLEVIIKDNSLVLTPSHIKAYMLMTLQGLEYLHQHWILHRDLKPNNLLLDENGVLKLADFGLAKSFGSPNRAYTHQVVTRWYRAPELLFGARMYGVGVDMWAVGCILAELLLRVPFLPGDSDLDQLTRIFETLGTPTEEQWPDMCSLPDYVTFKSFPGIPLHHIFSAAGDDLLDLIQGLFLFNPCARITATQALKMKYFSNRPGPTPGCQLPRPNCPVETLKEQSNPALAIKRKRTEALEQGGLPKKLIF
Chain of CDK7/cyclin H (P51946 whole entry partner, species assumed): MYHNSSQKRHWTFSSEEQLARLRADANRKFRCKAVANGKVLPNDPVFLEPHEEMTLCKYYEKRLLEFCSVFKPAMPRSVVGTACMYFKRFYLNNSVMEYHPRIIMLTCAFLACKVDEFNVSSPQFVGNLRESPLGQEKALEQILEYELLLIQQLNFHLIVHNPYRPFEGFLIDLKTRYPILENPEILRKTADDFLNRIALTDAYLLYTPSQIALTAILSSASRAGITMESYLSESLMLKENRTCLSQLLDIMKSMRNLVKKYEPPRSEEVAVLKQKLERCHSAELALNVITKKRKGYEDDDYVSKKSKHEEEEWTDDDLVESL
Chain of CDK4/cyclin D1 (P11802 whole entry, species assumed): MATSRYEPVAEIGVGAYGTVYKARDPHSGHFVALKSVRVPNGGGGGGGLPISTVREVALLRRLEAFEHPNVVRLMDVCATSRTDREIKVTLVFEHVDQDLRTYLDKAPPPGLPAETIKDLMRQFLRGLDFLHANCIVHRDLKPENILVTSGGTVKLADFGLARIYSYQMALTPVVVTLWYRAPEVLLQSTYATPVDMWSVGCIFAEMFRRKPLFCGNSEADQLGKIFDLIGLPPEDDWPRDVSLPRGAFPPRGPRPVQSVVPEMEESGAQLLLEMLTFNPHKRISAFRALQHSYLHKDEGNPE
Chain of CDK4/cyclin D1 (P24385 whole entry partner, species assumed): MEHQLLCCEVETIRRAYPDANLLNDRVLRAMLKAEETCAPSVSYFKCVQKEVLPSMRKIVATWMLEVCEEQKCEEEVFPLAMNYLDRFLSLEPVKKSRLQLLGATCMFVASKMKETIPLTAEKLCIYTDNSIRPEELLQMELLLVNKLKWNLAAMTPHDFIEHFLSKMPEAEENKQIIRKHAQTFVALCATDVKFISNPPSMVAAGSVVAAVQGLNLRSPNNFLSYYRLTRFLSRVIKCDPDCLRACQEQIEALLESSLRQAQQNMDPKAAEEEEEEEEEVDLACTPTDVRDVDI

In the case of `CC[C@H](CO)Nc1nc(NCc2ccncc2)c2ncn(C(C)C)c2n1` [Example 6, (R)-2-{9-Isopropyl-6-[(pyridin-4-ylmethyl)-amino]-9H-purin-2-ylamino}-butan-1-ol], the melting point fell in the range of 105 to 106 °C. Besides, the IC50 in [1] is over 50 µM. For the same compound, the IC50 in the data set on A2780 was 23 µM. Also, the IC50 at CDK4/cyclin D1 worked out at 30 µM. The IC50 in the data set with A2780 CisR is 22 µM. Besides, in the data set with CH1DoxR, the IC50 was found to be 28 µM. In addition, the IC50 with A549, HT29, Saos-2 was determined as 17 µM. Moreover, the IC50 in the data set on HCT116 came to 10 µM. Further, in the data set “Aqueous solubility”, the “PK remark: aqueous solubility” value is reported as “Improved aqueous solubility”. Further, the IC50 with KM12 came out at 7 µM. For the same compound, the IC50 in the data set with HT29 turned out to be 23 µM. The IC50 in data set [2] stood at 17.3 µM. The IC50 against CDK7/cyclin H is 0.74 µM. In addition, the IC50 in the data set with CH1 came out at 8.2 µM.
